Laboratory results: patent publication US5085739A, “Separation of the propyl alcohols from water by azeotropic or extractive distillation” (priority 1991, dated 1992)
Structures can show the parent of a compound that is named as a salt.

Key:
[1] = vapor-liquid equilibrium still, n-propanol-water azeotrope with agent; settings: for Relative Volatility: n-propanol from water; for liquid composition, n-propanol / liquid composition, water / vapor composition, n-propanol / vapor composition, water: butoxypropanol four hours, n-amyl acetate 14 hours
Source text: The data in Table 2, 3, 5, 6 and 7 were obtained in a vapor-liquid equilibrium still. In every case, the starting material was the propanol-water azeotrope. The relative volatilities are listed for each of the agents.

[2] = vapor-liquid equilibrium still, isopropanol-water azeotrope with agent; settings: for Relative Volatility: isopropanol from water, agent in vapor-liquid equilibrium still, water as overhead
Source text: In every case, the starting material was the propanol-water azeotrope. The relative volatilities are listed for each of the agents.

[3] = glass perforated plate rectification column, n-propanol from water; format: physicochemical
Method: A solution comprising 288 grams of n-propanol and 112 grams of water was placed in the stillpot of the perforated plate column. When refluxing began, an extractive agent comprising n-butyl acetate was pumped into the column at a rate of 15/min/ml. The temperature of the extractive agent as it entered the column was 85° C. After establishing the feed rate of the extractive agent, the heat input to the n-propanol-water in the stillpot was adjusted to give a total reflux rate of 40 ml/min. After two hours of operation, the overhead and bottoms samples of approximately two ml. were collected and analysed.
Two hundred grams of the n-propanol-water azeotrope and 85 grams of n-amyl formate as the azeotrope former were charged to the 7.3 theoretical plate column and refluxed at total reflux for four hours.

[4] = glass perforated plate rectification column (7.3 theoretical plates), isopropanol from water; format: physicochemical; settings: for Relative Volatility: extractive mode, 2 hrs, 7.3 theoretical plates; for Weight % Isopropanol, Bottoms / Weight % Water, Bottoms / Weight % Isopropanol, Overhead / Weight % Water, Overhead: rectification column
Method: A solution comprising 175 grams of isopropanol and 25 grams of water was placed in the stillpot of a 7.3 theoretical plate perforated plate column. […] The temperature of the extractive agent as it entered the column was 75° C. After establishing the feed rate of the extractive agent, the heat input to the isopropanol-water in the stillpot was adjusted to give a total reflux rate of 40 ml/min.
After two hours of operation, the overhead and bottoms samples of approximately two ml. were collected and analysed by gas chromatography.

[5] = as above; format: physicochemical; settings: azeotropic
[6] = extractive distn., water as overhead
[7] = extractive distn., * brings n-propanol out as overhead

OCCCCCO [1,5-Pentanediol]
Relative Volatility [1, 6]: 1.22
Relative Volatility [2]: 1.22

OCCCCCCO [1,6-Hexanediol]
Relative Volatility [1, 6]: 1.31
Relative Volatility ([3]; extractive mode, 2 hrs): 1.11
Weight % Water, Bottoms ([3]; rectification column): 23.6 Weight %
Weight % n-Propanol, Bottoms ([3]; rectification column): 76.4 Weight %
Weight % Water, Overhead ([3]; rectification column, overhead): 38.6 Weight %
Weight % n-Propanol, Overhead ([3]; rectification column, overhead): 61.4 Weight %

CCCCO [1-Butanol]
Relative Volatility [4]: 1.20
Weight % Isopropanol, Bottoms [4]: 87.9 Weight %
Weight % Water, Bottoms [4]: 12.1 Weight %
Weight % Isopropanol, Overhead [4]: 65.3 Weight %
Weight % Water, Overhead [4]: 34.7 Weight %

CCC(C)O (centres unmarked) [2-Butanol]
Relative Volatility [2]: 1.36

CCCCCC(C)=O [2-Heptanone]
Relative Volatility [1, 6]: 1.88
Relative Volatility [2]: 1.32

CCCCCCC(C)O (centres unmarked) [2-Octanol]
Relative Volatility [2]: 1.30

CCCC(C)=O [2-Pentanone]
Relative Volatility [2]: 1.38

CCCCC(=O)CC [3-Heptanone]
Relative Volatility ([1]; azeotropic distn.): 4.3

CC(C)CCO [3-Methyl-1-butanol]
Relative Volatility [2]: 1.54

CC(=O)C(C)C [3-Methyl-2-butanone]
Relative Volatility [2]: 1.24

CCCCCC(=O)CC [3-Octanone]
Relative Volatility [2]: 1.22

CC(=O)CC(C)C [4-Methyl-2-pentanone]
Relative Volatility ([1]; azeotropic distn.): 1.3
Relative Volatility ([3]; extractive mode, 2 hrs): 1.45
Relative Volatility [4]: 1.45
Weight % Isopropanol, Bottoms [4]: 82.3 Weight %
Weight % Water, Bottoms [4]: 17.7 Weight %
Weight % Isopropanol, Overhead [4]: 23.2 Weight %
Weight % Water, Overhead [4]: 76.8 Weight %
Relative Volatility [2]: 1.36

CCCCCOC=O [Amyl Formate]
Relative Volatility ([3]; azeotropic mode, 4 hrs): 1.23
Weight % Water, Bottoms ([3]; rectification column): 7.3 Weight %
Weight % n-Propanol, Bottoms ([3]; rectification column): 25.7 Weight %
Weight % Agent, Bottoms ([3]; rectification column, azeotropic): 67.0 Weight %
Weight % Agent, Bottoms ([3]; rectification column, azeotropic, listed as n-amyl formate): 67 Weight %
Weight % Water, Overhead ([3]; rectification column, overhead): 40.3 Weight %
Weight % n-Propanol, Overhead ([3]; rectification column, overhead): 29.9 Weight %
Weight % Agent, Overhead ([3]; rectification column, overhead, azeotropic): 29.8 Weight %

COc1ccccc1 [Anisole]
Relative Volatility [1, 6]: 2.0
Relative Volatility [2]: 1.54

N#Cc1ccccc1 [Benzonitrile]
Relative Volatility ([1]; azeotropic distn.): 1.5

CCCCOC(=O)c1ccccc1 [Butyl benzoate]
Relative Volatility [2]: 1.36

CCCCOC(=O)CCC [Butyl butyrate]
Relative Volatility [2]: 1.39

OC1CCCCCCCCCCC1 [Cyclododecanol]
Relative Volatility [1, 6]: 1.43

CCOCCOCCOC(C)=O [Diethylene glycol ethyl ether acetate]
Relative Volatility [1, 6]: 1.3

OCCOCCO [Diethylene glycol]
Relative Volatility [2]: 1.80

CCCC(=O)OCC [Ethyl butyrate]
Relative Volatility [2]: 1.46

O=C1OCCO1 [Ethylene carbonate]
Relative Volatility [1, 7]: 1.3

CCOCCOC(C)=O [Ethylene glycol ethyl ether acetate]
Relative Volatility [1, 6]: 1.37

COCCO [Ethylene glycol methyl ether]
Relative Volatility [2]: 1.60

OCCO [Ethylene glycol]
Relative Volatility [1, 7]: 1.7

CCCCCCOC(C)=O [Hexyl acetate]
Relative Volatility ([1]; azeotropic distn.): 3.4
Relative Volatility [2]: 1.31

CCCCCCO [Hexyl alcohol]
Relative Volatility [1, 6]: 1.44
Relative Volatility [2]: 1.32

CC(=O)OCC(C)C [Isobutyl acetate]
Weight % Water, Bottoms ([3]; rectification column): 58.8 Weight %
Weight % n-Propanol, Bottoms ([3]; rectification column): 41.2 Weight %
Weight % Water, Overhead ([3]; rectification column, overhead): 26.1 Weight %
Weight % n-Propanol, Overhead ([3]; rectification column, overhead): 73.9 Weight %

CCCC(=O)OCC(C)C [Isobutyl butyrate]
Relative Volatility ([1]; azeotropic distn.): 1.2

CC(C)COC(=O)C(C)C [Isobutyl isobutyrate]
Relative Volatility [2]: 1.61

CC(C)CCCCCCCO [Isodecyl alcohol]
Relative Volatility [1, 6]: 1.30

CC(=O)C=C(C)C [Mesityl oxide]
Relative Volatility ([1]; azeotropic distn.): 1.2
Relative Volatility [2]: 1.47

COC(=O)c1ccccc1 [Methyl benzoate]
Relative Volatility [1, 6]: 1.70
Relative Volatility [2]: 1.50

CC(=O)CCC(C)C [Methyl isoamyl ketone]
Relative Volatility [2]: 1.32

O=[N+]([O-])c1ccccc1 [Nitrobenzene]
Relative Volatility [1, 6]: 1.21
Relative Volatility [2]: 1.32

CCC(=O)c1ccccc1 [Propiophenone]
Relative Volatility [2]: 1.31

CCCOCC(C)O (centres unmarked) [Propoxypropanol]
Relative Volatility ([3]; extractive mode, 2 hrs): 1.21
Weight % Water, Bottoms ([3]; rectification column): 30 Weight %
Weight % n-Propanol, Bottoms ([3]; rectification column): 70 Weight %
Weight % Water, Overhead ([3]; rectification column, overhead): 63.5 Weight %
Weight % n-Propanol, Overhead ([3]; rectification column, overhead): 36.5 Weight %

CCCOC(=O)CCC [Propyl butyrate]
Relative Volatility ([1]; azeotropic distn.): 3.6
Relative Volatility [2]: 1.72
liquid composition, isopropanol ([2]; refluxed six hours): 85.3%
liquid composition, water ([2]; refluxed six hours): 14.7%
vapor composition, isopropanol ([2]; refluxed six hours): 77.1%
vapor composition, water ([2]; refluxed six hours): 22.9%

CC(C)COCC(C)O (centres unmarked) [Propylene glycol isobutyl ether]
Relative Volatility [2]: 1.29

CCCCCCCCCCCO [Undecyl alcohol]
Relative Volatility [1, 6]: 1.39

C=COCCCC [Vinyl n-butyl ether]
Weight % Agent, Bottoms ([5]; bottoms): 14.6 Weight %
Weight % Agent, Overhead ([5]; overhead): 57.0 Weight %
Weight % Isopropanol, Bottoms [4]: 80.3 Weight %
Weight % Water, Bottoms [4]: 5.1 Weight %
Weight % Isopropanol, Overhead [4]: 28.5 Weight %
Weight % Water, Overhead [4]: 14.5 Weight %

CC(O)c1ccccc1 (stereo not drawn) [alpha-Methyl benzyl alcohol]
Relative Volatility [1, 6]: 1.48

CCCCCOC(C)=O [n-Amyl acetate]
liquid composition, n-propanol [1]: 67.3%
liquid composition, water [1]: 32.7%
vapor composition, n-propanol [1]: 58%
vapor composition, water [1]: 42%
Relative Volatility ([1]; azeotropic distn.): 1.5
Relative Volatility [2]: 1.30

CCCCOC(C)=O [n-Butyl acetate]
Relative Volatility [1, 7]: 1.7
Relative Volatility ([3]; extractive mode, 2 hrs, * n-propanol comes off as overhead): 1.32
Weight % Water, Bottoms ([3]; rectification column): 73.7 Weight %
Weight % n-Propanol, Bottoms ([3]; rectification column): 26.3 Weight %
Weight % Water, Overhead ([3]; rectification column, overhead): 27.7 Weight %
Weight % n-Propanol, Overhead ([3]; rectification column, overhead): 72.3 Weight %
Relative Volatility [2]: 1.28

CCCCCCCCCCO [n-Decanol]
Relative Volatility [2]: 1.38

CCCCCCOC=O [n-Hexyl formate]
Relative Volatility [2]: 1.52

Butoxypropanol
liquid composition, n-propanol [1]: 77.2%
liquid composition, water [1]: 22.8%
vapor composition, n-propanol [1]: 60.5%
vapor composition, water [1]: 39.5%
Weight % Water, Bottoms ([3]; rectification column): 15.9 Weight %
Weight % n-Propanol, Bottoms ([3]; rectification column): 84.1 Weight %
Weight % Water, Overhead ([3]; rectification column, overhead): 50.1 Weight %
Weight % n-Propanol, Overhead ([3]; rectification column, overhead): 49.9 Weight %
